Test results published in ChEMBL document CHEMBL5518186, “Discovery of the cereblon-recruiting tubulin PROTACs effective in overcoming Taxol resistance in vitro and in vivo” (Eur J Med Chem, 2024).
Calls of active or inactive are those of the source. The rule behind the calls is not given here.

Assays:
MCF7 = test: Antiproliferative activity against human MCF7 cells incubated for 72 hrs; assay type: functional, cell-based; conditions: MCF7, 72 h
MGC-803 = test: Antiproliferative activity against human MGC-803 cells incubated for 72 hrs; assay type: functional, cell-based; conditions: MGC-803, 72 h
HeLa = test: Antiproliferative activity against human HeLa cells incubated for 72 hrs; assay type: functional, cell-based
[1] = biological target: T1, Protein cereblon-alpha tubulin (Homo sapiens) (UniProt P0DPH7+P68366+Q71U36+P68363+Q9BQE3+Q6PEY2+A6NHL2+Q9NY65+Q96SW2); test: Protac activity at CRBN/alpha-tubulin in human A549 cells assessed as reduction in alpha-tubulin level at 0.01 to 1 uM incubated for 48 hrs by immunoblotting analysis; assay type: cell-based; conditions: dose 0.01-1 µM
[2] = biological target: T2, Protein cereblon/Tubulin beta (Homo sapiens) (UniProt P68371+Q9H4B7+Q13509+P04350+Q3ZCM7+P07437+Q13885+Q9BVA1+Q9BUF5+Q96SW2+A6NNZ2); test: Protac activity at CRBN/beta-tubulin in human A549 cells assessed as reduction in beta-tubulin level at 0.01 to 1 uM incubated for 48 hrs by immunoblotting analysis; assay type: cell-based; conditions: dose 0.01-1 µM
[3] = biological target: T2, Protein cereblon/Tubulin beta (Homo sapiens); test: (§1) Protac activity at CRBN/beta-tubulin in human A549 cells assessed as reduction in beta-tubulin level incubated for 48 hrs by immunoblotting analysis; assay type: cell-based
[4] = biological target: Protein cereblon/Tubulin beta; test: as §1; assay type: cell-based
[5] = biological target: T3, Protein cereblon/Tubulin beta-3 chain (Homo sapiens, UniProt Q13509+Q96SW2); test: Protac activity at CRBN/beta3-tubulin in human A549 cells assessed as reduction in beta3-tubulin level incubated for 48 hrs by immunoblotting analysis; assay type: cell-based
[6] = biological target: T2, Protein cereblon/Tubulin beta (Homo sapiens); test: Protac activity at CRBN/beta-tubulin in human HeLa cells assessed as reduction in beta-tubulin level at 10 to 1000 nM incubated for 48 hrs by immunoblotting analysis; assay type: cell-based; conditions: dose 10-1000 nM
[7] = biological target: T2, Protein cereblon/Tubulin beta (Homo sapiens); test: Protac activity at CRBN/beta-tubulin in human MCF7 cells assessed as reduction in beta-tubulin level at 10 to 1000 nM incubated for 48 hrs by immunoblotting analysis; assay type: cell-based; conditions: dose 10-1000 nM
[8] = biological target: T3, Protein cereblon/Tubulin beta-3 chain; test: Protac activity at CRBN/beta3-tubulin in human MCF7 cells assessed as reduction in beta3-tubulin level at 10 to 1000 nM incubated for 48 hrs by immunoblotting analysis; assay type: cell-based; conditions: dose 10-1000 nM
Target sequence in this assay (Q13509 whole entry, looked up): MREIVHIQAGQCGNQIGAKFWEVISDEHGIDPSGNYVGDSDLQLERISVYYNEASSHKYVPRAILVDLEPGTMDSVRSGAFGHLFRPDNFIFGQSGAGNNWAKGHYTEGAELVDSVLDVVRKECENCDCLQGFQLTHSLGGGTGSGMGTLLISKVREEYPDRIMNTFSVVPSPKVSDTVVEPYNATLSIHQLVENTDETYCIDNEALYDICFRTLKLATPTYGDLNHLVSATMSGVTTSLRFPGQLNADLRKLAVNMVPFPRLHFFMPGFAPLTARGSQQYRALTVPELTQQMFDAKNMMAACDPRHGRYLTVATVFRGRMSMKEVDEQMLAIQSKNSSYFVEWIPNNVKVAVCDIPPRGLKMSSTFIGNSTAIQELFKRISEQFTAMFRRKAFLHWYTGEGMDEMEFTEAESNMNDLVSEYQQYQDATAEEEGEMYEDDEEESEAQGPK
Target sequence in this assay (Q96SW2 whole entry, looked up): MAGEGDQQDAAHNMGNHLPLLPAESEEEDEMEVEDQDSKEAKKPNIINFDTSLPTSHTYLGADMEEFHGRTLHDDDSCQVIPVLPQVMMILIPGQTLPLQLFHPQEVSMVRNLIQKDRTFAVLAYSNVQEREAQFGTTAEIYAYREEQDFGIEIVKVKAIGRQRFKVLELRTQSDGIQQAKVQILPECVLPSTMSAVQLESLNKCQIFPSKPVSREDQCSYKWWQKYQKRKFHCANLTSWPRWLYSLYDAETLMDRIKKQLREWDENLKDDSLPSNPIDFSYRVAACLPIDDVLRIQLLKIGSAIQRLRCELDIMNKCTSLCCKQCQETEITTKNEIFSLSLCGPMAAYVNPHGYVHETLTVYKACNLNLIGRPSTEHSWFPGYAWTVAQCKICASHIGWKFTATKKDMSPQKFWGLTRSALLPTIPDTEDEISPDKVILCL

[9] = biological target: T3, Protein cereblon/Tubulin beta-3 chain; test: Protac activity at CRBN/beta3-tubulin in human HepG2 cells assessed as reduction in beta3-tubulin level at 10 to 1000 nM incubated for 48 hrs by immunoblotting analysis; assay type: cell-based; conditions: dose 10-1000 nM
Target sequence in this assay (Q13509 whole entry, looked up): as the sequence (Q13509 whole entry, looked up) above
Target sequence in this assay (Q96SW2 whole entry, looked up): as the sequence (Q96SW2 whole entry, looked up) above

[10] = biological target: T3, Protein cereblon/Tubulin beta-3 chain; test: Protac activity at CRBN/beta3-tubulin in human A549 cells assessed as reduction in beta3-tubulin level at 0.25 uM after 72 hrs by immunoblotting analysis; assay type: cell-based
Target sequence in this assay (Q13509 whole entry, looked up): as the sequence (Q13509 whole entry, looked up) above
Target sequence in this assay (Q96SW2 whole entry, looked up): as the sequence (Q96SW2 whole entry, looked up) above

[11] = biological target: T3, Protein cereblon/Tubulin beta-3 chain; test: Protac activity at CRBN/beta3-tubulin in human A549 cells assessed as reduction in beta3-tubulin level at 0.25 uM pretreated for 48 hrs followed by compound washout and measured after 24 hrs by immunoblotting analysis; assay type: cell-based
Target sequence in this assay (Q13509 whole entry, looked up): as the sequence (Q13509 whole entry, looked up) above
Target sequence in this assay (Q96SW2 whole entry, looked up): as the sequence (Q96SW2 whole entry, looked up) above

[12] = biological target: T1, Protein cereblon-alpha tubulin (Homo sapiens); test: Protac activity at CRBN/alpha-tubulin in human A549 cells assessed as reduction in alpha-tubulin level at 0.25 uM pretreated with MG-132 followed by compound addition and measured after 24 hrs by immunoblotting analysis; assay type: cell-based
[13] = biological target: T2, Protein cereblon/Tubulin beta (Homo sapiens); test: Protac activity at CRBN/beta-tubulin in human A549 cells assessed as reduction in beta-tubulin level at 0.25 uM pretreated with MG-132 followed by compound addition and measured after 24 hrs by immunoblotting analysis; assay type: cell-based
[14] = biological target: T3, Protein cereblon/Tubulin beta-3 chain; test: Protac activity at CRBN/beta3-tubulin in human A549 cells assessed as reduction in beta3-tubulin level at 0.25 uM pretreated with pomalidomide for 2 hrs followed by compound addition and measured after 24 hrs by immunoblotting analysis; assay type: cell-based
Target sequence in this assay (Q13509 whole entry, looked up): as the sequence (Q13509 whole entry, looked up) above
Target sequence in this assay (Q96SW2 whole entry, looked up): as the sequence (Q96SW2 whole entry, looked up) above

[15] = biological target: T2, Protein cereblon/Tubulin beta (Homo sapiens); test: Protac activity at CRBN/beta-tubulin in human A549 cells assessed as reduction in beta-tubulin level at 0.25 uM pretreated with CA-4 for 2 hrs followed by compound addition and measured after 24 hrs by immunoblotting analysis; assay type: cell-based
[16] = biological target: T1, Protein cereblon-alpha tubulin (Homo sapiens); test: Protac activity at CRBN/alpha-tubulin in human A549/Taxol cells assessed as reduction in alpha-tubulin level at 0.25 uM pretreated with MG-132 followed by compound addition and measured after 48 hrs by immunoblotting analysis; assay type: cell-based
[17] = biological target: T1, Protein cereblon-alpha tubulin (Homo sapiens); test: Protac activity at CRBN/alpha-tubulin in human A549/Taxol cells assessed as reduction in alpha-tubulin level at 0.25 uM pretreated with pomalidomide for 2 hrs followed by compound addition and measured after 48 hrs by immunoblotting analysis; assay type: cell-based
[18] = biological target: T2, Protein cereblon/Tubulin beta (Homo sapiens); test: Protac activity at CRBN/beta-tubulin in human A549/Taxol cells assessed as reduction in beta-tubulin level at 0.25 uM pretreated with CA-4 for 2 hrs followed by compound addition and measured after 48 hrs by immunoblotting analysis; assay type: cell-based
A549 [19] = test: Induction of cell cycle arrest in human A549 cells assessed as accumulation of cells at G2/M phase at 0.002 uM incubated for 24 hrs by PI staining based flow cytometry analysis (reference value: 31.86%); assay type: functional
A549 [20] = test: Induction of cell cycle arrest in human A549 cells assessed as accumulation of cells at G2/M phase at 0.01 uM incubated for 24 hrs by PI staining based flow cytometry analysis (reference value: 31.86%); assay type: functional
A549 [21] = test: Induction of cell cycle arrest in human A549 cells assessed as accumulation of cells at G0/G1 phase at 0.05 uM incubated for 24 hrs by PI staining based flow cytometry analysis (reference value: 66.75%); assay type: functional
A549/TR [22] = test: Induction of cell cycle arrest in human A549/Taxol cells assessed as accumulation of cells at G2/M phase at 0.01 uM incubated for 24 hrs by PI staining based flow cytometry analysis (reference value: 17.02%); assay type: functional
A549/TR [23] = test: Induction of cell cycle arrest in human A549/Taxol cells assessed as accumulation of cells at G2/M phase at 0.05 uM incubated for 24 hrs by PI staining based flow cytometry analysis (reference value: 17.02%); assay type: functional
A549 [24] = test: Induction of apoptosis in human A549 cells assessed as increase in apoptotic rate at 0.05 uM incubated for 48 hrs by Annexin V-FITC/PI staining based flow cytometry analysis (reference value: 1.3%); assay type: functional
A549/TR [25] = test: Induction of apoptosis in human A549/Taxol cells at 0.05 uM incubated for 48 hrs by Annexin V-FITC/PI staining based flow cytometry analysis; assay type: functional
A549 [26] = test: Antitumor activity against human A549 cells xenografted in nude mouse assessed as decrease in tumor volume at 15 mg/kg, ip administered once every 2 days for 23 days by Vernier caliper method; assay type: functional, organism-based; conditions: time 23.0 day
Tubulin (Homo sapiens) = Tubulin (Homo sapiens) (UniProt P68371+Q9H4B7+P0DPH7+P68366+Q13509+Q71U36+P04350+Q3ZCM7+P07437+P68363+Q9BQE3+Q6PEY2+Q13885+Q9BVA1+Q9BUF5); test: Inhibition of microtubule polymerization in human HepG2 cells by immunofluorescence assay; assay type: cell-based
HepG2 [27] = test: Inhibition of DNA synthesis in human HepG2 cells; assay type: functional, cell-based
HepG2 [28] = test: Induction of intracellular ROS generation in human HepG2 cells; assay type: functional, cell-based
HepG2 [29] = test: Inhibition of cell invasion in human HepG2 cells; assay type: functional, cell-based

IC50 (MCF7): 0.012 µM | IC50 (MGC-803): 0.008 µM | IC50 (HeLa): 0.021 µM | Activity [1]: Active | Activity [2]: Active | Activity [3]: Dose-Dependent Effect | DC50 [4]: 0.856 µM | Activity [5]: Dose-Dependent Effect | DC50 [5]: 0.251 µM | Activity [6]: Active | Activity [7]: Active | Activity [8]: Active | Activity [9]: Active | Activity [10]: inactive | Activity [11]: inactive | Activity [12]: inactive | Activity [13]: inactive | Activity [14]: inactive | Activity [15]: inactive | Activity [16]: inactive | Activity [17]: inactive | Activity [18]: inactive | inhibition (Tubulin (Homo sapiens)): Active
Compound: COc1ccc(/C=C\c2cc(OC)c(OC)c(OC)c2)cc1OC(=O)CCCNc1cccc2c1C(=O)N(C1CCC(=O)NC1=O)C2=O (centres undefined)
Activity (A549 [19]): 37.03% | Activity (A549 [20]): 68.36% | Activity (A549 [21]): 10.15% | Activity (A549/TR [22]): 63.83% | Activity (A549/TR [23]): 66.57% | Activity (A549 [24]): 48.2% | Activity (A549/TR [25]): 36.2% | Activity (A549 [26]): Active | inhibition (HepG2 [27]): Dose-Dependent Effect | Activity (HepG2 [28]): Active | inhibition (HepG2 [29]): Dose-Dependent Effect
